Starred links: 1 amine or outer side, 2 acyl side, 3 side chain; linkers in the order of their positions; H or OH if unused. Non-standard residues stand in square brackets, D forms with d. Residues, ends and D or L forms follow the SMILES beside them. X1 = O=C([C@H](Cc1cnc(I)[nH]1)N[*:1])[*:2]
Legend:
[1] = Free fraction in plasma (equilibrium dialysis); format: in vitro ADME; settings: human EDTA plasma, pH 7.4 buffer, 37 °C
Description: Example 14 Free fraction in plasma
Free fraction in human plasma has been determined by equilibrium dialysis between human EDTA plasma (Bioreclamation) and 0.1 M NaH2PO4 buffer adjusted to pH 7.4. The experiment was performed in a 96 well dialysis plate (HTD96b, htdialysis). Plasma was frozen at -80 °C immediately after purchasing. Membranes (HTD 96a/b Dialysis Membrane Strips, MWCO 12-14 K, htdialysis) were soaked for one hour in pure PBS and kept in PBS/EtOH 80:20 (v/v) in a closed bottle at 5 °C until use.
Plasma was thawed in cold water and centrifuged 5 min at 3000 rpm before use to move potential clots. The plasma supernatant was transferred to a new tube. Test compounds were diluted to 0.2 mM in DMSO. Plasma was spiked 1:100 with test compound (final concentration 2 µM).
The dialysis plate was assembled with membranes according to the instructions whereupon 150 µL phosphate buffer was loaded to the lower side of the wells immediately after assembling and spiked plasma was loaded to the upper side of the wells. The plate was sealed with sealing tape and incubated at 37 °C with gently shaking in 5 hours.
After 5 hours incubation the plate was removed from the incubator. The sealing tape was carefully removed and 70 µL from the buffer wells ("lower" side) were transferred to 96 well plates for analysis.
Samples were analysed by LC-MS-MS on a Sciex API 4000 (Applied Biosystems). […]

[2] = molecular target: T1, human NK3 receptor (Homo sapiens, UniProt P29371); assay: NK3 receptor binding assay (SPA-based competition binding with 125I-NKB); settings: read-out: Affinity (Ki/nM); on Affinity (Ki/nM): competition with app 0.02 nM 125I-NKB
T1 construct: expressed in transfected cells; membranes prepared from them
T1 sequence (P29371 1-465): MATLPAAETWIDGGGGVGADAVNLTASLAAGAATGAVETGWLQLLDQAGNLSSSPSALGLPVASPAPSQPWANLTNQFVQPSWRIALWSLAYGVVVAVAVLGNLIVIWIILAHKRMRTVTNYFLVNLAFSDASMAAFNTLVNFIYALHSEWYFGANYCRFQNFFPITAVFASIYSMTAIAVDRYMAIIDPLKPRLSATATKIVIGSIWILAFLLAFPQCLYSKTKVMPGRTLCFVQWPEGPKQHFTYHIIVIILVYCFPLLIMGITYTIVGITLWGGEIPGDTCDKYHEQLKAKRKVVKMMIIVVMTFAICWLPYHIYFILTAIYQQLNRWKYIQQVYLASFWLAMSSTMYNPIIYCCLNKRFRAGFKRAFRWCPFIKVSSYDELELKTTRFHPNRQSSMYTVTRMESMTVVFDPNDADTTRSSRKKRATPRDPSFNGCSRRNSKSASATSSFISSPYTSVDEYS
Description: Example 12 NK3 receptor binding assay
(§1) Membranepreparation: BHK cells stably expressing the human NK3 receptor were seeded in harvesting plates in Dulbeccos MEM containing GlutaMax (862 mg/l), 1mM sodium pyruvate, 10% fetal calf serum, 1% Pen/Strep, 1 mg/ml G418 and were grown at 34 °C in a humidified atmosphere containing 10% CO2. To increase receptor expression, 10 µM trichotatin A was added to the media 24 hours before harvest of the cells at a confluency of app 90%. Prior to the harvesting, the cells were washed twice with PBS without Mg^2+ og Ca^2+ and subsequently scrapped of in 10 ml PBS pr harvesting plate. The cells suspension were centrifuged at 1500xG in three minutes before resuspension in 15 mM Tris-HCl pH 7,5 buffer containing 2 mM MgCl2; 0,3 mM EDTA and 1 mM EGTA (buffer A). The cell suspention was homogenised and subsequently centrifuged at 40000xG in 30 minutes. The membrane-pellet was resuspended in buffer A containing 250 mM sucrose, alliquoted and stored at ― 80 °C.
Affinity assay description: The assay was performed as a SPA-based competition-binding assay in a 50 mM Tris pH 7.4 assay buffer containing 120 mM NaCl, 3 mM MnCl2, 40 µg/ml bacitracin, 2 µg/ml Chymostatin, 1 µg/ml Phosphoramidon and 4 µg/ml Leupeptin. […] The assay plate was subsequently under agitation incubated for 90 min at RT. The plate was centrifugated 10 minutes at 500xG and counted in a topcounter 5 minuttes pr well.
The total binding, which comprised less than 5 % of added radioligand, was defined using assay buffer whereas the non-specific binding was defined in the presence of 1 µM osanetant. The non-specific binding constituted app 5 % of the total binding.

[3] = molecular target: T1, human NK3 receptor; assay: NK3 receptor efficacy and potency assay (FLIPR Calcium 4); format: cell-based; settings: read-out: Potency (cIC50/nM)
Description: Example 13 NK3 receptor efficacy and potency assay
BHK cells stably expressing the human NK3 receptor were seeded in 100 µl media in black walled clear-base 96-wells plates (Costar) aiming at a confluency of 95-100% at the day of assay. The assay was performed according to the FLIPR Calcium 4 Assay kit (Molecular Devices). At the day of the assay, the media was removed and the cells were washed once with the HBSS buffer (Hanks BSS buffer, pH 7,4 containing 20 mM Hepes) before 100 µl of a solution of the calcium assay reagent dissolved in the HBSS buffer containing 2,5 mM probinicid was added to the cells. The plates were incubated for 60 min at 34°C, 10% CO2 before use in the FLIPR for examination of fluorescence.
For efficacy and potency evaluation of compounds, these were diluted in HBSS buffer prior to test. For test of agonist activity, 25 µl of the diluted compound solution was added and the plate was analyzed for 5 minutes in the FLIPR. For test of antagonist activity, the plate was incubated for another 45 minutes before addition of 25 µl of the EC85 concentration ofNKB (app. 4 nM) as described above. The plates were subsequently analyzed for 5 minutes before the assay was terminated. The maximal increase in fluorescence over background following each ligand addition was determined.

[4] = molecular target: T1, human NK3 receptor; assay: NK3 receptor binding assay (SPA-based competition binding with 125I-NKB); settings: read-out: KD of 125I-NKB; three independent saturation assays, duplicate determinations
Description: as §1, with “Example 12 NK3 receptor binding assay Membranepreparation:” for “Membranepreparation:”, “°C. Affinity assay description: The assay was performed as a SPA-based competition-binding assay in a 50 mM Tris pH 7.4 assay buffer containing 120 mM NaCl, 3 mM MnCl2, 40 µg/ml bacitracin, 2 µg/ml Chymostatin, 1 µg/ml Phosphoramidon and 4 µg/ml Leupeptin. […] The plate was centrifugated 10 minutes at 500xG and counted in a topcounter 5 minuttes pr well. […]” for “°C.”

Compound	fraction unbound at 5 h, 2 µM [1]	Ki [2] [nM]	IC50 [3] [nM]	Kd [4] [nM]
CCNn1c(C)c(C(=O)N[C@@H](CC)c2ccccc2)c2ccccc2c1=O [Example 2a, 2-Ethylamino-3-methyl-1-oxo-1,2-dihydro-isoquinoline-4-carboxylic acid ((S)-1-phenylpropyl)-amide]	0.162	–	–	–
CCNn1c(C)c(C(=O)N[C@@H](CC)c2ccccc2)c2cccc(Cl)c2c1=O [Example 2h, 8-Chloro-2-ethylamino-3-methyl-1-oxo-1,2-dihydro-isoquinoline-4-carboxylic acid ((S)-1-phenyl-propyl)-amide]	0.062	31	36	–
CCNn1c(C)c(C(=O)N[C@H](c2ccccc2)C2CC2)c2cccc(F)c2c1=O [Example 2i, 2-Ethylamino-8-fluoro-3-methyl-1-oxo-1,2-dihydro-isoquinoline-4-carboxylic acid ((S)-cyclopropyl-phenyl-methyl)-amide]	0.134	27	–	–
CCCNn1c(C)c(C(=O)N[C@H](c2ccccc2)C2CC2)c2cccc(F)c2c1=O [Example 2k, 8-Fluoro-3-methyl-1-oxo-2-propylamino-1,2-dihydro-isoquinoline-4-corboxylic acid ((S)-cyclopropyl-phenyl-methyl)-amide]	0.124	–	–	–
CCNn1c(C)c(C(=O)N[C@H](c2cccc(F)c2)C2CCC2)c2cccc(F)c2c1=O [Example 2s, 2-Ethylamino-8-fluoro-3-methyl-1-oxo-1,2-dihydro-isoquinoline-4-carboxylic acid [(S)-cyclobutyl-(3-fluoro-phenyl)-methyl]-amide]	0.06	4.7	–	–
CCNn1c(C)c(C(=O)N[C@@H](CC)c2ccccc2)c2cccc(F)c2c1=O [Example 2t, 2-Ethylamino-8-fluoro-3-methyl-1-oxo-1,2-dihydro-isoquinoline-4-carboxylic acid ((S)-1-phenyl-propyl)-amide]	0.146	43	–	–
CCNn1c(C)c(C(=O)N[C@H](c2ccc(F)cc2)C2CC2)c2cccc(F)c2c1=O [Example 2w, 2-Ethylamino-8-fluoro-3-methyl-1-oxo-1,2-dihydro-isoquinoline-4-carboxylic acid [(S)-cyclopropyl-(4-fluoro-phenyl)-methyl]-amide]	0.132	28	–	–
CCCNn1c(C)c(C(=O)N[C@H](c2ccc(F)cc2)C2CCC2)c2cccc(F)c2c1=O [Example 8c]	0.046	–	–	–
Cc1c(C(=O)N[C@H](c2cccc(F)c2)C2CCC2)c2cccc(F)c2c(=O)n1NCCCF [Example 10a, 8-Fluoro-2-(3-fluoro-propylamino)-3-methyl-1-oxo-1,2-dihydro-isoqunoline-4-carboxylic acid [(S)-cyclobutyl-(3-fluoro-phenyl)-methyl]-amide]	0.089	–	–	–
CC[C@H](NC(=O)c1c(O)c(-c2ccccc2)nc2ccccc12)c1ccccc1 [Talnetant, talnetant, reference compound]	0.006	–	–	–
CSCC[C@H](NC(=O)[C@H](CC(C)C)NC(=O)CNC(=O)[C@@H](NC(=O)[C@H](Cc1ccccc1)NC(=O)[C@H](Cc1ccccc1)NC(=O)[C@H](CC(=O)O)NC(=O)[C@H](Cc1cnc(I)[nH]1)NC(=O)[C@H](CCSC)NC(=O)[C@@H](N)CC(=O)O)C(C)C)C(N)=O [^125I-NKB] (H-DM[X1]DFFVGLM-NH2)	–	–	–	0.7

— patent EP2342182B1 (H. Lundbeck A/S, priority 2008, dated 2010)
